pIC50: −log10 of the molar value.
Experiments:
[1] = test system: BGC-823; assay: Cytotoxicity against human BGC823 cells after 24 hrs by MTT assay; format: functional, cell-based; settings: BGC-823, 24 h
[2] = test system: A549; assay: Cytotoxicity against human A549 cells after 24 hrs by MTT assay; format: functional, cell-based; settings: A549, 24 h
[3] = test system: Bel-7402; assay: Cytotoxicity against human Bel7402 cells after 24 hrs by MTT assay; format: functional, cell-based; settings: Bel-7402, 24 h
[4] = test system: A2780; assay: cells; settings: Homo sapiens, A2780, 24 h
Description: Cytotoxicity against human A2780 cells after 24 hrs by MTT assay

[5] = test system: HCT-8; assay: Cytotoxicity against human HCT8 cells after 24 hrs by MTT assay; format: functional, cell-based; settings: HCT-8, 24 h
[6] = test system: Influenza A virus; assay: microbe, parasite or virus in culture; format: functional, organism-based; settings: HEK-293T
[7] = Antiinflammatory activity in PAF-induced rat Polymorphonuclear leukocyte assessed as inhibition of beta-glucuronidase release at 10^-5 M; format: functional

| Compound | pIC50 [1] | pIC50 [2] | pIC50 [3] | pIC50 [4] | pIC50 [5] | pIC50 [6] | inhibition at 10 µM [7] [%] |
| --- | --- | --- | --- | --- | --- | --- | --- |
| CC(C)c1cc2c(cc1O)[C@]13CCC[C@](C)(CO[C@H]1O)[C@@H]3CC2 | < 5.00 | < 5.00 | < 5.00 | < 5.00 | < 5.00 |  |  |
| CC(C)c1cc2c(cc1O)[C@@]1(O)CCCC(C)(C)[C@@H]1CC2=O | < 5.00 | < 5.00 | < 5.00 | < 5.00 | < 5.00 |  |  |
| CC(C)C1=C[C@]2(O)CC[C@H]3[C@]4(C)CCC[C@]3(C(=O)OC4)C2=CC1=O | < 5.00 | < 5.00 | < 5.00 | < 5.00 | < 5.00 |  |  |
| CC(C)C1=C[C@]23O[C@H]2[C@H]2OC(=O)[C@@]4(CCCC(C)(C)[C@H]24)C3=CC1=O | < 5.00 | < 5.00 | < 5.00 | 5.77 | < 5.00 |  |  |
| CCO[C@@H]1OC[C@@]2(C)CCC[C@@]13c1cc(O)c(C(C)C)cc1C(=O)C[C@@H]23 | < 5.00 | < 5.00 | < 5.00 | < 5.00 | < 5.00 |  |  |
| CO[C@@H]1OC[C@@]2(C)CCC[C@@]13c1cc(O)c(C(C)C)cc1CC[C@@H]23 | < 5.00 | < 5.00 | < 5.00 | < 5.00 | < 5.00 |  |  |
| CC(C)c1ccc2c(c1)C(=O)C[C@H]1C(C)(C)CCC[C@]21C | < 5.00 | < 5.00 | < 5.00 | < 5.00 | < 5.00 | 5.32 |  |
| CC(C)c1cc2c(cc1O)C1=CC(=O)CC(C)(C)[C@@H]1CC2 | < 5.00 | < 5.00 | < 5.00 | < 5.00 | < 5.00 |  |  |
| CC(C)c1cc2c(cc1O)[C@]13CCC[C@](C)(CO[C@@H]1O)[C@@H]3CC2 | < 5.00 | < 5.00 | < 5.00 | < 5.00 | < 5.00 |  |  |
| CC(C)c1cc2c(cc1O)[C@H]1CCCC(C)(C)[C@@H]1CC2=O | < 5.00 | < 5.00 | < 5.00 | < 5.00 | < 5.00 |  | 56.1 |
| CC[C@@]1(O)C(=O)OCc2c1cc1n(c2=O)Cc2cc3ccccc3nc2-1 [CAMPTOTHECIN] |  | 5.44 |  | 6.70 |  |  |  |
| CC(C)c1cc2ccc3c(c2cc1O)C(=O)CCC3(C)C | < 5.00 | < 5.00 | < 5.00 | < 5.00 | < 5.00 |  |  |
| CC(C)c1cc2c(cc1O)C1=C(CC2)C(C)(C)CC[C@H]1O | < 5.00 | < 5.00 | < 5.00 | < 5.00 | < 5.00 |  |  |
| CC(C)c1cc2c(cc1O)[C@@]13CCCC(C)(C)[C@@H]1[C@H](OC3=O)C2=O | < 5.00 | < 5.00 | < 5.00 | < 5.00 | < 5.00 |  |  |
| CC(C)c1cc2c(cc1O)[C@@]1(C=O)CCCC(C)(C)[C@@H]1CC2 | < 5.00 | < 5.00 | < 5.00 |  | < 5.00 |  | 65.9 |
| CC(C)c1cc2c(cc1O)[C@@]1(O)CCC[C@](C)(CO)[C@@H]1CC2=O | < 5.00 | < 5.00 | < 5.00 | < 5.00 | < 5.00 |  |  |
| CCO[C@@H]1C[C@@H]2C(=CC(=O)CC2(C)C)c2cc(O)c(C(C)C)cc21 | < 5.00 | < 5.00 | < 5.00 | < 5.00 | < 5.00 |  |  |
| CC(C)C1=C[C@]23CC[C@H]4[C@]5(C)CCC[C@@]4(C2=CC1=O)[C@@H](OC5)O3 | < 5.00 | < 5.00 | < 5.00 | < 5.00 | < 5.00 |  |  |
| CC(C)c1cc2c(cc1O)[C@]13CCC[C@](C)(COC1=O)[C@@H]3CC2 | < 5.00 | < 5.00 | < 5.00 | < 5.00 | < 5.00 |  |  |
| CC(C)c1cc2c(cc1O)[C@@]13CCCC(C)(C)[C@@H]1[C@H](OC3=O)[C@H]2O | < 5.00 | < 5.00 | < 5.00 | < 5.00 | < 5.00 |  |  |
| CC(C)c1cc2c(cc1O)[C@]13CCC[C@]4(C)CO[C@@H]1O[C@H]2C[C@@H]43 | < 5.00 | < 5.00 | < 5.00 | < 5.00 | < 5.00 |  | 59.7 |
| CC(C)c1cc2c(cc1O)[C@@]13CCCC(C)(C)[C@@H]1[C@H](OC3=O)[C@@H]2O | < 5.00 | 5.22 | < 5.00 | < 5.00 | < 5.00 |  |  |
| CCO[C@@H]1OC[C@@]2(C)CCC[C@@]13c1cc(O)c(C(C)C)cc1CC[C@@H]23 | < 5.00 | < 5.00 | < 5.00 | < 5.00 | < 5.00 |  |  |
| CO[C@H]1OC[C@@]2(C)CCC[C@@]13c1cc(O)c(C(C)C)cc1CC[C@@H]23 | < 5.00 | < 5.00 | < 5.00 | < 5.00 | < 5.00 |  |  |

Source: ChEMBL document CHEMBL1649339, “Abietane and C20-norabietane diterpenes from the stem bark of Fraxinus sieboldiana and their biological activities” (J Nat Prod, 2010)
